Reference: patent US8952035B2, “Combination of anti-angiogenic substance and anti-tumor platinum complex” (Eisai R&D Management Co., Ltd., priority 2008, dated 2015)

Assays:
[1] = test system: Human non-small-cell lung cancer cell line A549; assay: Combination use of E7080 and carboplatin in subcutaneous transplanted models (in vivo) of A549; design: species or system nude mouse; details: alone
Procedure: Human non-small-cell lung cancer cell line A549 (purchased from Dainippon Sumitomo Pharma Co., Ltd) was cultured in RPMI1640 (containing 10% FBS) in a 5% carbon dioxide gas incubator at 37° C. to about 80% confluence, and then the cells were collected with trypsin-EDTA. A 1×10^8 cells/mL suspension was prepared with a phosphate buffer, which was further added with matrigel matrix (purchased from Becton, Dickinson and Co.) to give a 5×10^7 cells/mL suspension, and each 0.2 mL of the resulting cell suspension was subcutaneously transplanted to a nude mouse at the side of its body. Eleven days after the transplantation, 4-(3-chloro-4-(cyclopropylaminocarbonyl)aminophenoxy)-7-methoxy-6-quinolinecarboxamide (E7080) was orally administered for 3 or 10 mg/kg, once a day for four weeks, while 100 mg/kg of carboplatin was administered into the tail vein on the first day. The major and minor axes of tumors were measured with Digimatic caliper (Mitsutoyo Corporation), and tumor volumes and relative tumor volumes were calculated according to the following formulae: Tumor Volume (TV)=Major axis of tumor(mm)×(Minor axis of tumor)^2(mm^2)/2 Relative Tumor Volume (RTV)=Tumor volume on measurement day/Tumor volume on the first administration day.
Tables 4 and 5 show anti-tumor effects obtained by the use of E7080 alone, the use of carboplatin alone and the combination use of E7080 and carboplatin in subcutaneous transplanted A549 models. The first day of administration was considered Day 1.

[2] = test system: Human non-small-cell lung cancer cell line A549; assay: Combination use of E7080 and cisplatin in subcutaneous transplanted models (in vivo) of A549; design: species or system nude mouse; details: alone
Procedure: Human non-small-cell lung cancer cell line A549 (purchased from Dainippon Sumitomo Pharma Co., Ltd) was cultured in RPMI1640 (containing 10% FBS) in a 5% carbon dioxide gas incubator at 37° C. to about 80% confluence, and then the cells were collected with trypsin-EDTA. A 1×10^8 cells/mL suspension was prepared with a phosphate buffer, which was further added with matrigel matrix (purchased from Becton, Dickinson and Co.) to give a 5×10^7 cells/mL suspension, and each 0.2 mL of the resulting cell suspension was subcutaneously transplanted to a nude mouse at the side of its body. Eleven days after the transplantation, 4-(3-chloro-4-(cyclopropylaminocarbonyl)aminophenoxy)-7-methoxy-6-quinolinecarboxamide (hereinafter, also referred to as “[…]”) was orally administered for 3, 10 or 30 mg/kg, once a day for four weeks, while 10 mg/kg of cisplatin was administered into the tail vein once a day. The major and minor axes of tumors were measured with Digimatic caliper (Mitsutoyo Corporation), and tumor volumes and relative tumor volumes were calculated according to the following formulae: Tumor Volume (TV)=Major axis of tumor(mm)×(Minor axis of tumor)^2(mm^2)/2 Relative Tumor Volume (RTV)=Tumor volume on measurement day/Tumor volume on the first administration day. […] Tables 1, 2 and 3 show anti-tumor effects obtained by the use of […] alone, the use of cisplatin alone and the combination use of […] and cisplatin in subcutaneous transplanted A549 models. The first day of administration was considered Day 1.

[3] = E7080 3 mg/kg orally once a day for four weeks
[4] = E7080 10 mg/kg orally once a day for four weeks

N.N.O=C([O-])C1(C(=O)[O-])CCC1.[Pt+2] [Carboplatin, carboplatin, reference compound]
Relative tumor volume on Day 29 Average ± standard deviation ([1]; Carboplatin 100 mg/kg into the tail vein on the first day): 7.87 ± 1.05

N.N.[Cl][Pt][Cl] [Cisplatin, cisplatin, reference compound]
Relative tumor volume on Day 29 Average ± standard deviation ([2]; Cisplatin 10 mg/kg into the tail vein): 7.99 ± 0.88

COc1cc2nccc(Oc3ccc(NC(=O)NC4CC4)c(Cl)c3)c2cc1C(N)=O [E7080, 4-(3-chloro-4-(cyclopropylaminocarbonyl)aminophenoxy)-7-methoxy-6-quinolinecarboxamide]
Relative tumor volume on Day 29 Average ± standard deviation [1, 3]: 2.24 ± 0.34
Relative tumor volume on Day 29 Average ± standard deviation [1, 4]: 1.81 ± 0.29
Relative tumor volume on Day 29 Average ± standard deviation [2, 3]: 2.24 ± 0.34
Relative tumor volume on Day 29 Average ± standard deviation [2, 4]: 1.81 ± 0.29
Relative tumor volume on Day 29 Average ± standard deviation ([2]; E7080 30 mg/kg orally once a day for four weeks): 1.20 ± 0.21
